Experimental data from paper PMC5887109, “Unravelling the Molecular Determinants of Bee Sensitivity to Neonicotinoid Insecticides” (Current Biology, 2018).

Experiments:
[1] = biological target: nicotinic acetylcholine receptor (nAChR); experiment: [3H]imidacloprid displacement, honeybee head membrane preparations; assay type: binding, A. mellifera; conditions: honeybee head membranes; 95% CI given in text
Procedure: (§1) [^3H]imidacloprid (specific activity 1.406 GBq μmol^−1) displacement studies were conducted using membrane preparations isolated from frozen (−80°C) honeybee and bumble bee heads, respectively, following previously published protocols. Briefly, bee heads weighing 10cg were homogenized in 200cml ice-cold 0.1cM potassium phosphate buffer, pH 7.4 containing 95cmM sucrose using a motor-driven Ultra Turrax blender. […] Assays were performed in a 96-well microtiter plate with bonded GF/C filter membrane (Packard UniFilter-96, GF/C) and consisted of 200 μL of homogenate (0.48cmg protein), 25 μL of [^3H]imidacloprid (576cpM) and 25 μL of competing ligand. Ligand concentrations used ranged from 0.001 to 10c000cnM and were tested at least in duplicate per competition assay. The assay was started by the addition of homogenate and incubated for 60cmin at room temperature. Bound [^3H]imidacloprid was quantified by filtration into a second 96-well filter plate (conditioned with ice-cold 100cmM potassium phosphate buffer, pH 7.4 (including BSA 5cg liter−1)) using a commercial cell harvester (Brandel). […] Each well was then loaded with 25 μL of scintillation cocktail (Microszint-O-Filtercount, Packard) and the plate counted in a Topcount scintillation counter (Packard). Non-specific binding was determined using a final concentration of 10cμM unlabelled imidacloprid. […]

[2] = test system: transgenic Drosophila expressing honeybee CYP9Q3; experiment: Insecticide bioassay of transgenic Drosophila expressing CYP9Q3; assay type: in vivo, Drosophila melanogaster; conditions: Act5C-GAL4 driven; ratio of LC50 values
Procedure: (§2) Fly lines were made homozygous for the transgene integrations. […] LC50 values were calculated as above.

honeybees = conditions: depends on route of exposure; cited from earlier work
[3] = test system: transgenic Drosophila expressing honeybee CYP9Q1; experiment: Insecticide bioassay of transgenic Drosophila expressing CYP9Q1; assay type: in vivo, Drosophila melanogaster; conditions: Act5C-GAL4 driven; ratio of LC50 values
Procedure: as §2

[4] = test system: transgenic Drosophila expressing B. terrestris CYP9Q4; experiment: Insecticide bioassay of transgenic Drosophila expressing CYP9Q4; assay type: in vivo, Drosophila melanogaster; conditions: Act5C-GAL4 driven; ratio of LC50 values
Procedure: as §2

[5] = test system: transgenic Drosophila expressing honeybee CYP9Q2; experiment: Insecticide bioassay of transgenic Drosophila expressing CYP9Q2; assay type: in vivo, Drosophila melanogaster; conditions: Act5C-GAL4 driven; ratio of LC50 values
Procedure: as §2

[6] = biological target: nicotinic acetylcholine receptor (nAChR); experiment: [3H]imidacloprid displacement, bumble bee head membrane preparations; assay type: binding, B. terrestris; conditions: bumble bee head membranes; 95% CI given in text
Procedure: as §1

CYP9Q1 = CYP9Q1 (Apis mellifera, UniProt A0A7M7GTV9); experiment: in vitro; conditions: for metabolism by the recombinant P450 (in words): hydroxylation (thiacloprid, imidacloprid) or N-desmethylation (acetamiprid)
Sequence of CYP9Q1 (Q07994 whole entry): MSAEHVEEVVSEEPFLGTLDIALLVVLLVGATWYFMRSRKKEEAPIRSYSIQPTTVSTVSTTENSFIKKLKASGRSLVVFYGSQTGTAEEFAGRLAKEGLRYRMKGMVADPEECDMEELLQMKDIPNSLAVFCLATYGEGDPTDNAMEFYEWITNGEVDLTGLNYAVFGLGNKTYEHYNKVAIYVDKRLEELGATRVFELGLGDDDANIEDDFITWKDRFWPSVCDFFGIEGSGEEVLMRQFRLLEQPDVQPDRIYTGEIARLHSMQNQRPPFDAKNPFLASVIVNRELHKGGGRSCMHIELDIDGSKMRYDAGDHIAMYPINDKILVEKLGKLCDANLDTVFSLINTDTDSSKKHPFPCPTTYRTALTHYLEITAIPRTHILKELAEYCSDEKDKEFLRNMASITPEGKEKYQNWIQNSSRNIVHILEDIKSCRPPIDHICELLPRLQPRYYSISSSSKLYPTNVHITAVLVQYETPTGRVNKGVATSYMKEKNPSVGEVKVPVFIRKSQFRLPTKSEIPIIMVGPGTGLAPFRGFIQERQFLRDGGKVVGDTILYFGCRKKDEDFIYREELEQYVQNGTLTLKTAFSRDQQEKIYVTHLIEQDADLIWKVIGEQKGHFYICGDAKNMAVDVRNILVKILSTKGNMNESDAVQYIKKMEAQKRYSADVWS
Sequence of CYP9Q1 (A0A7M7GTV9 entry or part of it): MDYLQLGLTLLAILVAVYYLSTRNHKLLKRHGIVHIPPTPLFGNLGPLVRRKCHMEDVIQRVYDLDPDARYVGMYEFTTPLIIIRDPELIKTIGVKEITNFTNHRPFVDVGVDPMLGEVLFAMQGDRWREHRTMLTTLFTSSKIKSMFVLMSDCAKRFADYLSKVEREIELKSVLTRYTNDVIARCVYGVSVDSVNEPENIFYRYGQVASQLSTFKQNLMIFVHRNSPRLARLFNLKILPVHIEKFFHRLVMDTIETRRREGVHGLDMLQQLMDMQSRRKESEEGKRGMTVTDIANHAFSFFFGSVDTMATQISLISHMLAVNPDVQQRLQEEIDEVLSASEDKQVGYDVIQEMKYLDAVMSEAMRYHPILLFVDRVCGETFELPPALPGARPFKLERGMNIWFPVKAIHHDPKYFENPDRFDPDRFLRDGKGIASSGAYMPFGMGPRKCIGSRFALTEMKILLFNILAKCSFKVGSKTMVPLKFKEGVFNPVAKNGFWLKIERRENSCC
Text: (§3) All bee P450 (see Table S3 for accession numbers) and house fly NADPH-dependent cytochrome P450 reductase (CPR) (GenBank accession number Q07994) genes were obtained by gene synthesis (Geneart, CA, USA) and inserted into the pDEST8 expression vector (Invitrogen). Codon optimization of all bee genes was used to optimize expression in lepidopteran cell lines. The PFastbac1 vector with no inserted DNA was used to produce a control virus. The recombinant baculovirus DNA was constructed and transfected into Trichoplusia ni (High five cells, Thermo Fisher) using the Bac-to-Bac baculovirus expression system (Invitrogen) according to the manufacturer’s instructions. The titer of the recombinant virus was determined following protocols of the supplier. High Five cells grown to a density of 2 × 10^6 cells ml^-1 were co-infected with recombinant baculoviruses containing each bee P450 and CPR with a range of MOI (multiplicity of infection) ratios to identify the optimal conditions. Control cells were co-infected with the baculovirus containing vector with no insert (ctrl-virus) and the recombinant baculovirus expressing CPR using the same MOI ratios. Ferric citrate and δ-aminolevulinic acid hydrochloride were added to a final concentration of 0.1 mM at the time of infection and 24 h after infection to compensate the low levels of endogenous heme in the insect cells. After 48 h, cells were harvested, washed with PBS, and microsomes of the membrane fraction prepared according to standard procedures and stored at −80°C [31]. Briefly, pellets were homogenized for 30 s in 0.1M Na/K-phosphate buffer, pH 7.4 containing 1mM EDTA and DTT and 200mM sucrose using a Fastprep (MP Biomedicals), filtered through miracloth and centrifuging for 10 min at 680 g at 4°C. The supernatant was then centrifuged for 1 h at 100,000 g at 4°C, with the pellet subsequently resuspended in 0.1M Na/K-phosphate buffer, pH 7.6 containing 1mM EDTA and DTT and 10% glycerol using a Dounce tissue grinder. P450 expression and functionality was estimated by measuring CO-difference spectra in reduced samples using a Specord 200 Plus Spectrophotometer (Analytik Jena) and scanning from 500 nm to 400 nm. The protein content of samples was determined using Bradford reagent (Sigma) and bovine serum albumin (BSA) as a reference.
The total assay volume was 200 μL using three replicates for each data point. Microsomes incubated without NADPH served as a control. The assay was stopped by the addition of ice-cold acetonitrile (to 80% final concentration), centrifuged for 10 min at 3000 g and the supernatant subsequently analyzed by tandem mass spectrometry as described previously. For the chromatography on a Waters Acquity HSS T3 column (2.1x50mm, 1.8μm), acetonitrile/water/0.1% formic acid was used as the eluent in gradient mode. […] The peak integrals were calibrated externally against a standard calibration curve. […] Substrate turnover from two independent reactions were plotted versus controls and Michaelis-Menten kinetics determined using GraphPad Prism version 7 (GraphPad Software, CA, USA).

CYP9Q4 = CYP9Q4 (Bombus terrestris, UniProt A0A9B0BBT5); experiment: Metabolism by recombinant CYP9Q4/CPR microsomes, LC-MS/MS
Sequence of CYP9Q4 (Q07994 whole entry): as the sequence (Q07994 whole entry) above
Sequence of CYP9Q4 (A0A9B0BBT5 entry or part of it): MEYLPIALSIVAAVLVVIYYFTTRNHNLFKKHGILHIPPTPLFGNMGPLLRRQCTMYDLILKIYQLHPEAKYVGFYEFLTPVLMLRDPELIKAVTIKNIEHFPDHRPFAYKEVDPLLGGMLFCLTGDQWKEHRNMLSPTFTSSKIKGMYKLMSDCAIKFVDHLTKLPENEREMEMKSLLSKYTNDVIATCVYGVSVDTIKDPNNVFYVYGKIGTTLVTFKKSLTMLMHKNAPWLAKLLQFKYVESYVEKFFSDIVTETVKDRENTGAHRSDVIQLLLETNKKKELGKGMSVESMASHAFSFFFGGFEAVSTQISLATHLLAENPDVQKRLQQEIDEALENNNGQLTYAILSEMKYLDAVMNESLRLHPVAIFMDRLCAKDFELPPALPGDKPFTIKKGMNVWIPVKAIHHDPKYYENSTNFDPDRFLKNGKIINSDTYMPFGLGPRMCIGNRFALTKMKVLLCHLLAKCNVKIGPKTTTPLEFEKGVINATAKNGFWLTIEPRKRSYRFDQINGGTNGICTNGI
Text: as §3
(§4) The total assay volume was 200 μL using three replicates for each data point. […] The assay was stopped by the addition of ice-cold acetonitrile (to 80% final concentration), centrifuged for 10 min at 3000 g and the supernatant subsequently analyzed by tandem mass spectrometry as described previously. […] Substrate turnover from two independent reactions were plotted versus controls and Michaelis-Menten kinetics determined using GraphPad Prism version 7 (GraphPad Software, CA, USA).

CYP9Q5 = experiment: Metabolism by recombinant CYP9Q5/CPR microsomes, LC-MS/MS
Text: as §3, §4

[7] = apparent value, mean ± SD (n=3), decimal commas
[8] = hydroxylation (thiacloprid) or N-desmethylation (acetamiprid)

Compound	IC50 [1]	resistance compared to control flies without the transgene [2]	EPA toxicity category (honeybees)	resistance compared to control flies without the transgene [3]	resistance compared to control flies without the transgene [4]	resistance compared to control flies without the transgene [5]	IC50 [6]	metabolism by the recombinant P450 (in words) (CYP9Q1)	Km at 45 min (CYP9Q4; Bombus terrestris)	Vmax, thiacloprid hydroxylation (CYP9Q4; [7])	metabolism by the recombinant P450 (in words) (CYP9Q4; [8])	Km at 2 h (CYP9Q1; Apis mellifera)	Vmax, thiacloprid hydroxylation (CYP9Q1; [7])	Km at 45 min (CYP9Q5; Bombus terrestris)	Vmax, thiacloprid hydroxylation (CYP9Q5; [7])	metabolism by the recombinant P450 (in words) (CYP9Q5; [8])
O=[N+]([O-])NC1=NCCN1Cc1ccc(Cl)nc1 [imidacloprid]	1.2 nM	no significant differences in sensitivity	highly toxic	no significant differences in sensitivity	no significant differences	no significant differences in sensitivity	0.71 nM	much lower efficiency than exhibited for thiacloprid	–	–	–	–	–	–	–	–
N#C/N=C1\SCCN1Cc1ccc(Cl)nc1 [thiacloprid]	1.1 nM	–	slightly toxic” or “practically non-toxic	–	–	–	0.62 nM	weak activity	11.8 µM	18,94±0,64 pmol min-1 mg-1	metabolize thiacloprid to its 5-hydroxy form	17.8 µM	3,92 ±0,08 pmol min-1 mg-1	30 µM	4,29±0,71 pmol min-1 mg-1	metabolize thiacloprid to its 5-hydroxy form
